Laboratory results from PubChem BioAssay (NCI).
“And” between values parts separate entries of the source, which are not always exact repeats. Equal values may be shown once.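 Five concentrations, 48 hours, 96-well plates. GI50 marks 50% less growth. Definition used: TGI = concentration required for complete inhibition of growth.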

How the values were obtained:
Test in all cases: DTP human tumour cell line panel, 48 h
SN12C renal = tested on: SN12C renal
HL-60(TB) leukemia = tested on: HL-60(TB) leukemia
HCT-15 colon = tested on: HCT-15 colon
K-562 leukemia = tested on: K-562 leukemia
MDA-MB-231 breast = tested on: MDA-MB-231 breast
SR leukemia = tested on: SR leukemia
HCC-2998 colon = tested on: HCC-2998 colon
SNB-75 CNS = tested on: SNB-75 CNS

Structure (SMILES)	GI50 (SN12C renal) [µM]	TGI (SN12C renal)	GI50 (HL-60(TB) leukemia) [µM]	TGI (HL-60(TB) leukemia) [µM]	GI50 (HCT-15 colon) [µM]	TGI (HCT-15 colon)	GI50 (K-562 leukemia)	TGI (K-562 leukemia)	GI50 (MDA-MB-231 breast) [µM]	TGI (MDA-MB-231 breast) [µM]	GI50 (SR leukemia)	TGI (SR leukemia)	TGI (HCC-2998 colon)	GI50 (SNB-75 CNS) [µM]	TGI (SNB-75 CNS)	GI50 (HCC-2998 colon) [µM]
O=C1Nc2ccc(O)cc2/C1=C\c1ccncc1	16.2	44.3 µM	36	> 100	11	39 µM	17.7 µM	56.2 µM	14.6	39.4	3.75 µM	17.8 µM	–	–	–	–
O=C1CC(C(=O)O)Cc2c(Br)ccc(O)c21 (configuration not stated)	–	> 100 µM	–	> 100	–	> 100 µM	–	> 100 µM	–	> 100	–	> 100 µM	> 100 µM	–	–	–
O=c1c2cccc(F)c2sc2c(NCCCNCCO)nc3ccccc3c12	1.44	2.9 µM	1.92	3.91	1.25	2.65 µM	1.75 µM	4.64 µM	1.26	2.65	0.984 µM	4.85 µM	3.19 µM	1.56	2.99 µM	1.61
NS(=O)(=O)c1ccc(N=Nc2c(O)[nH]c3ccc(C(=O)NCCc4cnc[nH]4)cc23)cc1	> 25	> 25 µM	> 25	> 25	> 25	> 25 µM	> 25 µM	> 25 µM	> 25	> 25	> 25 µM	> 25 µM	> 25 µM	> 25	> 25 µM	> 25
O=C(COc1cccc(/C=C2\COc3ccccc3C2=O)c1)c1ccccc1	4.7	19.8 µM	5.85	29.2	1.85	4.45 µM	2.05 µM	5.65 µM	10.6	22.9	2.17 µM	6.66 µM	–	11.5	24.7 µM	–
O=C(/C=C/c1ccco1)Nc1ncc(Cc2cccc(C(F)(F)F)c2)s1	0.197	> 50.5 µM	0.0604	0.19	0.0465	> 34.3 µM	0.0361 µM	> 33.8 µM	0.153	4.8	0.0334 µM	3.67 µM	2.21 µM	0.0301	1.65 µM	0.179
C[C@]12CCCN1CC1=NNC(=O)c3cc(F)cc4[nH]c2c1c34	14.3	79.1 µM	25	66.9	21.2	> 100 µM	–	–	18	66.5	3.57 µM	> 100 µM	91.6 µM	13.6	35.9 µM	25.1
CC1NC(C(=O)O)Cc2cc(O)c(O)cc21 (configuration not stated)	–	> 100 µM	–	> 100	–	> 100 µM	–	–	–	> 100	–	> 100 µM	> 100 µM	–	–	–
CC(=O)NC(CS)C(=O)O (configuration not stated)	> 100	> 100 µM	> 100	> 100	> 100	> 100 µM and 47600 µM	–	–	–	–	> 100 µM	> 100 µM	> 100 µM and 50800 µM	> 100	> 100 µM and 89800 µM	> 100
CCSc1nc(NC(C)c2ccccc2)c2cnn(CO)c2n1 (configuration not stated)	> 100	> 100 µM	> 100	> 100	70.2	> 100 µM	29.2 µM	> 100 µM	61.8	> 100	79.4 µM	> 100 µM	–	> 100	> 100 µM	–
C=C1C(=O)O[C@@H]2C[C@@H]1CC[C@]1(C)O[C@H]1CC/C(C)=C/CC[C@@]2(C)O	18.6	41.1 µM	–	–	8.51	21.3 µM	34.3 µM	> 100 µM	21.4	48.8	4.07 µM	15.7 µM	23.6 µM	–	–	10.6
COc1ccc(CN2C(=O)/C(=C\C(=O)c3ccc(OCCN4CCCC4)cc3)c3ccccc32)cc1	–	–	2.61	6.7	1.65	3.24 µM	2.05 µM	6.03 µM	2.17	4.44	–	–	6.12 µM	14.2	30.9 µM	2.6
CN1CCN(Cc2ccc(NC(=O)c3cncc(C#Cc4c(N)ncc5c(F)cccc45)c3)cc2C(F)(F)F)CC1	0.743	1.43 µM	0.33	1.22	0.6	1.3 µM	0.005 µM	0.738 µM	0.522	1.17	–	–	1.56 µM	0.827	1.55 µM	0.821
COC(=O)CC1C2(C)C3=C(C)C(c4ccoc4)CC3OC2C2OC(=O)C3(C)C=CC(=O)C1(C)C23 (configuration not stated)	–	2.58 µM	–	2.76	–	3.15 µM	–	4.82 µM	–	2.81	–	–	2.7 µM	–	12.3 µM	–
CCOC(=O)C1=C(C)NC(C)=C(C(=O)OCCNC(=O)c2ccc(N=[N+]=[N-])cc2)C1c1ccccc1C(F)(F)F (configuration not stated)	–	21.5 µM	–	14.7	–	21.5 µM	–	21.5 µM	–	21.5	–	21.5 µM	21.5 µM	–	–	–
COC(=O)[C@H](Cc1ccccc1)NNC(=O)c1csc([C@@H](C[C@H](C(C)C)N(C)C(=O)[C@@H](NC(=O)[C@H]2CCCCN2C)C2CC2)OC(C)=O)n1	–	25 µM and > 100 µM	0.0013	0.00596	–	25 µM and > 100 µM	0.00302 µM and 0.0025 µM and 0.0243 µM	25 µM and > 100 µM	–	–	0.00139 µM and 0.0025 µM	25 µM and > 100 µM	25 µM and > 100 µM	–	–	–
Cc1cncc(-c2nc(NCCc3c[nH]c4ccccc34)c3ncn(C(C)C)c3n2)c1	3.67	32.4 µM	–	–	1.67	3.82 µM	–	–	4.3	17.6	–	–	15.1 µM	4.87	21.1 µM	4.12
O=C(CN1CCN(CCN2C(=O)c3cccc4cccc(c34)C2=O)CC1)Nc1ccc2ncsc2c1	5.5	19.9 µM	10.2	27.5	5.05	20.1 µM	–	–	> 100	> 100	1.38 µM	41.2 µM	> 100 µM	9.44	> 100 µM	5.84
